Laboratory results taken from patent publication US20240368163A1, “COMPOUNDS AND METHODS FOR MODULATING SPLICING” (REMIX THERAPEUTICS INC., priority 2021, published 2024).
Like-named read-outs stand apart in the source and are kept apart here.

Assays:
[1] = Transwell assay for membrane efflux and permeability; format: in vitro ADME, Canine; details: dog; MDCK-BCRP or MDCKII-MDR1 transwell, test compound 1 μM, 2 hours at 37° C.
Method in brief: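 Transport measured over 2 h at 37 °C with compounds at 1 μM final in HBSS containing 0.5% DMSO. Monolayers of BCRP-expressing MDCK or MDR1-expressing MDCKII cells were cultured 4-8 days, then HBSS-washed and equilibrated 30 min at 37 °C before dosing.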

SMN2 = assay: Splicing RT-qPCR panel, SMN2 canonical junction (CJ) mRNA; format: cell-based, human; details: Homo sapiens, read-out: SMN2 IC50 (decrease in CJ mRNA levels)
Method in brief: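 Splicing switch read by one-step RT-qPCR of canonical and alternative exon junctions, housekeeper-normalized (GAPDH/GUSB/PPIA), 2^(−ΔΔCt) vs DMSO as percent response. Cells (A673 or K562) dosed 24 h, 11 points 3-fold from 10 uM, DMSO ≤0.25%.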

[2] = RT-qPCR panel, canonical junction mRNA, compound concentration having 50% response in CJ decrease
[3] = gene panel, CJ qPCR, protocol of Example 142

Compound | Papp at 2 h, 1 μM [1] | efflux ratio at 2 h, 1 μM [1] | IC50 (SMN2; [2]) | IC50 (SMN2; [3])
COc1cc(-c2ccc(-c3ccc(O[C@@H]4C[C@H]5CC[C@@H](C4)N5)nn3)c3scnc23)cnn1 [Compound 362] | 2 to 6 ×10⁻⁶ cm/s | > 5 | < 100 nM | 
Fc1ccn(-c2ccc(-c3ccc(O[C@@H]4C[C@H]5CC[C@@H](C4)N5)nn3)c3scnc23)n1 [Compound 363] | < 2 ×10⁻⁶ cm/s | 1.5 to 5 | < 100 nM | 
CN(c1ncc(-c2ccc(-n3cccn3)c3[nH]ncc23)nn1)[C@@H]1C[C@H]2CCC[C@@H](C1)N2 [Compound 551] | 2 to 6 ×10⁻⁶ cm/s | > 5 | < 100 nM | 
c1cnn(-c2ccc(-c3cnc(N[C@@H]4C[C@H]5CC[C@@H](C4)N5)nn3)c3cn[nH]c23)c1 [Compound 556] | 2 to 6 ×10⁻⁶ cm/s | > 5 | 100 to 1000 nM | 
c1cnn(-c2ccc(-c3cnc(N[C@@H]4C[C@H]5CCC[C@@H](C4)N5)nn3)c3cn[nH]c23)c1 [Compound 561] | 2 to 6 ×10⁻⁶ cm/s | > 5 | 100 to 1000 nM | 
CC(C)(C)C1CN(c2ncc(-c3ccc(-n4cccn4)c4[nH]ncc34)nn2)CCN1 (stereo not drawn) [Compound 572] | < 2 ×10⁻⁶ cm/s | < 1.5 | 100 to 1000 nM | 
CN(c1ncc(-c2ccc(-n3cncn3)c3[nH]ncc23)nn1)[C@@H]1C[C@H]2CCC[C@@H](C1)N2 [Compound 574] | < 2 ×10⁻⁶ cm/s | > 5 | < 100 nM | 
CN(c1ncc(-c2ccc(-n3ccnn3)c3[nH]ncc23)nn1)[C@@H]1C[C@H]2CCC[C@@H](C1)N2 [Compound 576] | < 2 ×10⁻⁶ cm/s | > 5 | 100 to 1000 nM | 
Cc1ncc(-c2ccc(-c3cnc(N(C)[C@@H]4C[C@H]5CCC[C@@H](C4)N5)nn3)c3scnc23)s1 [Compound 578] | < 2 ×10⁻⁶ cm/s | > 5 | < 100 nM | 
Cc1nc(-c2ccc(-c3cnc(N(C)[C@@H]4C[C@H]5CCC[C@@H](C4)N5)nn3)c3scnc23)cs1 [Compound 579] | < 2 ×10⁻⁶ cm/s | > 5 | 100 to 1000 nM | 
Cc1cc(-c2ccc(-c3cnc(N(C)[C@@H]4C[C@H]5CCC[C@@H](C4)N5)nn3)c3scnc23)sn1 [Compound 580] | < 2 ×10⁻⁶ cm/s | > 5 | < 100 nM | 
CC(C)(C)[C@H]1CN(c2ncc(-c3ccc(-n4cccn4)c4[nH]ncc34)nn2)CCN1 [Compound 581] | 2 to 6 ×10⁻⁶ cm/s | < 1.5 | 100 to 1000 nM | 
COc1nc(-c2ccc(N(C)[C@@H]3C[C@H]4CC[C@@H](C3)N4)nn2)ccc1-c1cn[nH]c1 [Compound 906] | < 2 ×10⁻⁶ cm/s | > 5 |  | < 100 nM
CN(c1ccc(-c2ccc(-c3cn[nH]c3)cn2)nn1)[C@@H]1C[C@H]2CC[C@@H](C1)N2 [Compound 915] | < 2 ×10⁻⁶ cm/s | < 1.5 |  | > 10000 nM
COc1nc(-c2ccc(OC3CC(C)(C)NC(C)(C)C3)nn2)ccc1-c1cn[nH]c1 [Compound 917] | 2 to 6 ×10⁻⁶ cm/s | > 5 |  | < 100 nM
COc1nc(-c2ccc(OC3CC(C)(C)NC(C)(C)C3)nn2)ccc1-c1cnn(C)c1 [Compound 918] | 2 to 6 ×10⁻⁶ cm/s | > 5 |  | < 100 nM

Compound | Papp at 2 h, 1 μM [1] | efflux ratio at 2 h, 1 μM [1] | IC50 (SMN2; [2]) | IC50 (SMN2; [3])
COc1nc(-c2ccc(N(C)C3CC(C)(C)NC(C)(C)C3)nn2)ccc1-c1cn[nH]c1 [Compound 919] | < 2 ×10⁻⁶ cm/s | > 5 |  | < 100 nM
COc1nc(-c2ccc(N(C)C3CC(C)(C)NC(C)(C)C3)nn2)ccc1-c1cnn(C)c1 [Compound 920] | 2 to 6 ×10⁻⁶ cm/s | > 5 |  | < 100 nM
CN(c1ccc(-c2ccc(-c3cn[nH]c3)c(F)n2)nn1)[C@@H]1C[C@H]2CC[C@@H](C1)N2 [Compound 922] | < 2 ×10⁻⁶ cm/s | > 5 |  | < 100 nM
CN(c1ccc(-c2ccc(-c3cn[nH]c3)c(C#N)n2)nn1)[C@@H]1C[C@H]2CC[C@@H](C1)N2 [Compound 930] | < 2 ×10⁻⁶ cm/s | > 5 |  | < 100 nM
COc1nc(-c2ccc(N(C)[C@@H]3C[C@H]4CC[C@@H](C3)N4)nn2)cc(F)c1-c1cn[nH]c1 [Compound 931] | < 2 ×10⁻⁶ cm/s | > 5 |  | < 100 nM
CN(c1ccc(-c2ccc(-c3cn[nH]c3)c(OC3CC3)n2)nn1)[C@@H]1C[C@H]2CC[C@@H](C1)N2 [Compound 939] | < 2 ×10⁻⁶ cm/s | > 5 |  | < 100 nM
COc1cc(-c2ccc(-c3ccc(N(C)[C@@H]4C[C@H]5CC[C@@H](C4)N5)nn3)nc2OC)ncn1 [Compound 954] | < 2 ×10⁻⁶ cm/s | > 5 |  | 100 to 1000 nM
CN(c1ccc(-c2ccc(-c3cn[nH]c3)c(OC(F)F)n2)nn1)[C@@H]1C[C@H]2CC[C@@H](C1)N2 [Compound 955] | < 2 ×10⁻⁶ cm/s | > 5 |  | < 100 nM
COc1nc(-c2ccc(N3CCC(NC(C)(C)C)C3)nn2)ccc1-c1cn[nH]c1 (stereo not drawn) [Compound 956] | 2 to 6 ×10⁻⁶ cm/s | > 5 |  | < 100 nM
COc1nc(-c2ccc(N(C)[C@@H]3C[C@H]4CC[C@@H](C3)N4)nn2)ccc1-c1ccnc(O)c1 [Compound 961] | < 2 ×10⁻⁶ cm/s | 1.5 to 5 |  | 100 to 1000 nM
COc1nc(-c2ccc(O[C@@H]3C[C@H]4CC[C@@H](C3)N4)nn2)ccc1-c1cnc(C)s1 [Compound 962] | 2 to 6 ×10⁻⁶ cm/s | 1.5 to 5 |  | 100 to 1000 nM
COc1nc(-c2ccc(OC3CC(C)(C)NC(C)(C)C3)nn2)cc(F)c1-c1cn[nH]c1 [Compound 965] | 2 to 6 ×10⁻⁶ cm/s | > 5 |  | < 100 nM
CCOc1nc(-c2ccc(OC3CC(C)(C)NC(C)(C)C3)nn2)cc(F)c1-c1cn[nH]c1 [Compound 966] | 2 to 6 ×10⁻⁶ cm/s | > 5 |  | < 100 nM
CCOc1nc(-c2ccc(OC3CC(C)(C)NC(C)(C)C3)nn2)ccc1-c1cn[nH]c1 [Compound 967] | 2 to 6 ×10⁻⁶ cm/s | 1.5 to 5 |  | < 100 nM
COc1nc(-c2ccc(OC3CC4CC(F)(F)C(C3)N4)nn2)cc(F)c1-c1cn[nH]c1 (stereo not drawn) [Compound 969] | 2 to 6 ×10⁻⁶ cm/s | > 5 |  | 1000 to 10000 nM
